Our source for the Ki values is patent publication EP2970215B1, “PYRROLIDINE DERIVATIVES, PHARMACEUTICAL COMPOSITIONS CONTAINING THEM, AND THEIR USE IN THERAPY” (AbbVie Deutschland GmbH & Co. KG, priority 2013, dated 2014).

pKi: −log10 of the molar value.

This test deals with T1, human GlyT1c transporter (Homo sapiens, UniProt P48067).
T1 construct: expressed in transfected cells; host or cells: CHO cells (recombinant; line hGlyT1c_5_CHO is named for the uptake assay)
T1 sequence (P48067 1-706): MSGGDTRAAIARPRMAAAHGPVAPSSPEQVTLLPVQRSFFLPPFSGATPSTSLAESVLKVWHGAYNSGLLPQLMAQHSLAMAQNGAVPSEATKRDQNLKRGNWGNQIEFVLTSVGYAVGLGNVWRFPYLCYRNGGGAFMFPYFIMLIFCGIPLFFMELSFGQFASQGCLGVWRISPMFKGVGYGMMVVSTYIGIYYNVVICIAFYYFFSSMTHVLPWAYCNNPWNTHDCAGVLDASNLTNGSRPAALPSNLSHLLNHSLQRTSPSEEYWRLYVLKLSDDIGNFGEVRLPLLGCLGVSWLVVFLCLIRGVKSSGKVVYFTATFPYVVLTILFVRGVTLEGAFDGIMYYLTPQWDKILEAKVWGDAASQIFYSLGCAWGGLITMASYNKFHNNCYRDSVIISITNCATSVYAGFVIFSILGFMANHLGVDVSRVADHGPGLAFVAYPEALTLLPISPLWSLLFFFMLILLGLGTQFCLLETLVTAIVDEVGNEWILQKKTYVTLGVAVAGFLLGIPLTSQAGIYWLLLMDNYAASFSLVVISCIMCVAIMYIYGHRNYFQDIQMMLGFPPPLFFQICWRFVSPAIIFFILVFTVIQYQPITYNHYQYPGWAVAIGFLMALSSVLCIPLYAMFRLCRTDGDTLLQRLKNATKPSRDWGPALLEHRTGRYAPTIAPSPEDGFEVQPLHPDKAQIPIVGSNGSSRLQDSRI
Briefly: Radioligand binding assay using recombinant CHO cell membranes expressing human GlyT1. As to conditions: radioligand binding to human GlyT1c transporter-expressing membranes. From the text:
2. Radioligand binding assays using recombinant CHO cell membranes expressing human GlyT1: […]
Take `Cn1cnc(S(=O)(=O)N2C[C@@H](C(=O)Nc3ccc(C(F)(F)F)cc3)[C@H](c3ccc(F)cc3)C2)c1` (relative stereo) [Example 243, Trans-4-(4-fluorophenyl)-1-[(1-methyl-1H-imidazol-4-yl)sulfonyl]-N-[4-(trifluoromethyl)phenyl]pyrrolidine-3-carboxamide]: the pKi is ≥ 6.00.
Then `Cn1cnc(S(=O)(=O)N2C[C@H](NCCc3cccc(Cl)c3)[C@@H](c3ccccc3)C2)c1` [Example 468, (3R,4S)-N-[2-(3-chlorophenyl)ethyl]-1-[(1-methyl-1H-imidazol-4-yl)sulfonyl]-4-phenylpyrrolidin-3-amine], with ≥ 7.00.
Next, `Cn1cnc(S(=O)(=O)N2C[C@H](Nc3cc(OCc4ccccc4)ncn3)[C@@H](c3ccc(F)cc3)C2)c1` [Example 774, 6-(benzyloxy)-N-{(3R,4S)-4-(4-fluorophenyl)-1-[(1-methyl-1H-imidazol-4-yl)sulfonyl]pyrrolidin-3-yl}pyrimidin-4-amine]: ≥ 7.00; `Cn1cnc(S(=O)(=O)N2C[C@H](Nc3ccc4c(c3)CCO4)[C@@H](c3ccccc3)C2)c1` [Example 671, (3R,4S)-N-(2,3-dihydro-1-benzofuran-5-yl)-1-[(1-methyl-1H-imidazol-4-yl)sulfonyl]-4-phenylpyrrolidin-3-amine]: ≥ 6.00; `Cn1cnc(S(=O)(=O)N2C[C@@H](Nc3cccc(F)c3)[C@H](c3ccccc3)C2)c1` (relative stereo) [Example 70, trans-N-(3-fluorophenyl)-1-[(1-methyl-1H-imidazol-4-yl)sulfonyl]-4-phenylpyrrolidin-3-amine]: ≥ 6.00.
For `Cn1cnc(S(=O)(=O)N2C[C@@H](Nc3ccnc(C(F)(F)F)c3)[C@H](c3ccccc3)C2)c1` (relative stereo) [Example 211, N-{trans-1-[(1-methyl-1H-imidazol-4-yl)sulfonyl]-4-phenylpyrrolidin-3-yl}-2-(trifluoromethyl)pyridin-4-amine], the pKi was ≥ 6.00.
Consider `Cc1nn(C)c(Cl)c1S(=O)(=O)N1C[C@@H](NC(=O)c2cccc(C(F)(F)F)c2Cl)[C@H](c2ccccc2)C1` (relative stereo) [Example 40, 2-chloro-N-{trans-1-[(5-chloro-1,3-dimethyl-1H-pyrazol-4-yl)sulfonyl]-4-phenylpyrrolidin-3-yl}-3-(trifluoromethyl)benzamide], for which the negative logarithm of the Ki (pKi) is ≤ 5.00.
On to `Cc1nc(Cl)cc(N[C@H]2CN(S(=O)(=O)c3cn(C)cn3)C[C@@H]2c2ccc(F)cc2)n1` [Example 690, 6-chloro-N-{(3R,4S)-4-(4-fluorophenyl)-1-[(1-methyl-1H-imidazol-4-yl)sulfonyl]pyrrolidin-3-yl}-2-methylpyrimidin-4-amine], for which the pKi was ≥ 6.00.
Next, `Cn1cnc(S(=O)(=O)N2C[C@H](Nc3cc(OC4CCCC4)ncn3)[C@@H](c3ccc(F)cc3)C2)c1` [Example 720, 6-(cyclopentyloxy)-N-{(3R,4S)-4-(4-fluorophenyl)-1-[(1-methyl-1H-imidazol-4-yl)sulfonyl]pyrrolidin-3-yl}pyrimidin-4-amine]: ≥ 7.00.
Then `CCCCCCN[C@@H]1CN(S(=O)(=O)c2cn(C)cn2)C[C@H]1c1ncccc1F` (relative stereo) [Example 762, Trans-4-(3-fluoropyridin-2-yl)-N-hexyl-1-[(1-methyl-1H-imidazol-4-yl)sulfonyl]pyrrolidin-3-amine], with ≥ 7.00; and `Cn1cnc(S(=O)(=O)N2C[C@@H](NC(=O)c3cccc(C(F)(F)F)c3Cl)[C@H](c3ccccc3Cl)C2)c1` (relative stereo) [Example 115, 2-chloro-N-{trans-4-(2-chlorophenyl)-1-[(1-methyl-1H-imidazol-4-yl)sulfonyl]pyrrolidin-3-yl}-3-(trifluoromethyl)benzamide], with ≥ 7.00.
On to `Cn1ccc(S(=O)(=O)N2C[C@@H](NC(=O)c3cccc(C(F)(F)F)c3Cl)[C@H](c3ccccc3)C2)n1` (relative stereo) [Example 49, 2-chloro-N-{trans-1-[(1-methyl-1H-pyrazol-3-yl)sulfonyl]-4-phenylpyrrolidin-3-yl}-3-(trifluoromethyl)benzamide], for which the pKi was ≥ 5.00.
On to `Cn1cnc(S(=O)(=O)N2C[C@@H](Nc3cccc(Cl)c3)[C@H](c3ccc(F)cc3)C2)c1` (relative stereo) [Example 94, trans-N-(3-chlorophenyl)-4-(4-fluorophenyl)-1-[(1-methyl-1H-imidazol-4-yl)sulfonyl]pyrrolidin-3-amine], for which the pKi was ≥ 8.00.
Take `CC(=O)CCC(=O)N[C@H]1CN(S(=O)(=O)c2cn(C)cn2)C[C@@H]1c1ccc(F)cc1` [Example 738, N-{(3R,4S)-4-(4-fluorophenyl)-1-[(1-methyl-1H-imidazol-4-yl)sulfonyl]pyrrolidin-3-yl}-4-oxopentanamide]: the pKi is < 5.00.
Then `Cn1cnc(S(=O)(=O)N2C[C@@H](NC(=O)c3ccc(C(F)(F)F)cc3)[C@H](c3ccccc3)C2)c1` (relative stereo) [Example 37, N-{trans-1-[(1-methyl-1H-imidazol-4-yl)sulfonyl]-4-phenylpyrrolidin-3-yl}-4-(trifluoromethyl)benzamide], with ≥ 6.00.
With `Cn1cnc(S(=O)(=O)N2C[C@@H](Nc3cccc(OC(F)(F)F)c3)[C@H](C3CCCCC3)C2)c1` (relative stereo) [Example 425, Trans-4-cyclohexyl-1-[(1-methyl-1H-imidazol-4-yl)sulfonyl]-N-[3-(trifluoromethoxy)phenyl]pyrrolidin-3-amine], the pKi is ≥ 8.00.
Then `Cn1cnc(S(=O)(=O)N2C[C@H](Nc3cc(-c4cccc(Cl)c4)ncn3)[C@@H](c3ccc(F)cc3)C2)c1` [Example 729, 6-(3-chlorophenyl)-N-{(3R,4S)-4-(4-fluorophenyl)-1-[(1-methyl-1H-imidazol-4-yl)sulfonyl]pyrrolidin-3-yl}pyrimidin-4-amine], with ≥ 8.00; and `O=S(=O)(c1c(Cl)nc2sccn12)N1CC(Nc2ccc(F)c(F)c2)C(c2ccccc2)C1` (stereo not shown) [Example 520, 1-[(6-chloroimidazo[2,1-b][1,3]thiazol-5-yl)sulfonyl]-N-(3,4-difluorophenyl)-4-phenylpyrrolidin-3-amine], with ≥ 5.00; and `Cn1cnc(S(=O)(=O)N2C[C@@H](NC(=O)C3(C(F)(F)F)CC3)[C@H](c3ccccn3)C2)c1` (relative stereo) [Example 374, N-[Trans-1-[(1-methyl-1H-imidazol-4-yl)sulfonyl]-4-(pyridin-2-yl)pyrrolidin-3-yl]-1-(trifluoromethyl)cyclopropanecarboxamide], with ≤ 5.00.
Take `CCCCOC(=O)N[C@H]1CN(S(=O)(=O)c2cn(C)cn2)C[C@@H]1c1ccccc1` [Example 544, butyl {(3R,4S)-1-[(1-methyl-1H-imidazol-4-yl)sulfonyl]-4-phenylpyrrolidin-3-yl}carbamate]: the negative logarithm of the Ki (pKi) is ≥ 5.00.
Take `Cn1cnc(S(=O)(=O)N2C[C@H](NCc3cccc(C(F)(F)F)n3)[C@@H](c3ccccc3)C2)c1` [Example 552]: the negative logarithm of the Ki (pKi) is ≥ 5.00.
`Cn1cnc(S(=O)(=O)N2C[C@@H](Nc3cccc(OC(F)(F)F)c3)[C@H](c3ncccc3F)C2)c1` (relative stereo) [Example 799, Trans-4-(3-fluoropyridin-2-yl)-1-[(1-methyl-1H-imidazol-4-yl)sulfonyl]-N-[3-(trifluoromethoxy)phenyl]pyrrolidin-3-amine]: the negative logarithm of the Ki (pKi) was ≥ 7.00.

Broadly, the pKi is −log10 of the Ki, conventionally taken in molar units.
